Source: paper PMC6704710, “Preclinical evaluation of 3D185, a novel potent inhibitor of FGFR1/2/3 and CSF-1R, in FGFR-dependent and macrophage-dominant cancer models” (Journal of Experimental & Clinical Cancer Research : CR, 2019)

Experiments:
Assay in all cases: Eurofins kinase panel
Format in all cases: biochemical
SAPK3(h) = molecular target: T1, SAPK3(h) (Homo sapiens, UniProt P53778); details: read-out: Inhibition rate (%)
T1 construct: purchased Eurofins (KinaseProfiler)
T1 sequence (P53778 1-367): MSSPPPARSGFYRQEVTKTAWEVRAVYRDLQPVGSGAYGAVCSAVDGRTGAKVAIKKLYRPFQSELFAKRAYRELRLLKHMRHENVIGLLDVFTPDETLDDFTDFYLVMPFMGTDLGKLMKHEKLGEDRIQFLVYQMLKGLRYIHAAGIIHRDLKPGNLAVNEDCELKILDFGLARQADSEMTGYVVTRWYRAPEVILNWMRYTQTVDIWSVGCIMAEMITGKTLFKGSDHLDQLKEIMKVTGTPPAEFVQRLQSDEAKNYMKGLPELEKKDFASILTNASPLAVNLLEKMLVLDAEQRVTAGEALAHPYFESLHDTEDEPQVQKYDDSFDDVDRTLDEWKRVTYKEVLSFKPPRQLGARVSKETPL

PDGFRα(h) = molecular target: T2, PDGFRα(h) (Homo sapiens, UniProt P16234); details: read-out: Inhibition rate (%)
T2 construct: purchased Eurofins (KinaseProfiler)

NEK6(h) = molecular target: T3, NEK6(h) (Homo sapiens, UniProt Q9HC98); details: read-out: Inhibition rate (%)
T3 construct: purchased Eurofins (KinaseProfiler)
T3 sequence (Q9HC98 whole entry): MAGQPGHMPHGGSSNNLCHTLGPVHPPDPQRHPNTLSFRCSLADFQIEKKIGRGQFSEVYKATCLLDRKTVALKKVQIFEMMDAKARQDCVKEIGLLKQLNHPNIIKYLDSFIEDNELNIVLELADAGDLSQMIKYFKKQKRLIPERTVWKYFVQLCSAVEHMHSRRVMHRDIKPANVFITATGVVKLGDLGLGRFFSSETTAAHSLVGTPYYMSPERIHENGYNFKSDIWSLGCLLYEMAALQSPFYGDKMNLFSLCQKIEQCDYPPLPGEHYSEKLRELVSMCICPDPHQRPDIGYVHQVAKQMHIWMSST

ALK1(h) = molecular target: T4, ALK1(h) (Homo sapiens, UniProt P37023); details: read-out: Inhibition rate (%)
T4 construct: purchased Eurofins (KinaseProfiler)
T4 sequence (P37023 22-503): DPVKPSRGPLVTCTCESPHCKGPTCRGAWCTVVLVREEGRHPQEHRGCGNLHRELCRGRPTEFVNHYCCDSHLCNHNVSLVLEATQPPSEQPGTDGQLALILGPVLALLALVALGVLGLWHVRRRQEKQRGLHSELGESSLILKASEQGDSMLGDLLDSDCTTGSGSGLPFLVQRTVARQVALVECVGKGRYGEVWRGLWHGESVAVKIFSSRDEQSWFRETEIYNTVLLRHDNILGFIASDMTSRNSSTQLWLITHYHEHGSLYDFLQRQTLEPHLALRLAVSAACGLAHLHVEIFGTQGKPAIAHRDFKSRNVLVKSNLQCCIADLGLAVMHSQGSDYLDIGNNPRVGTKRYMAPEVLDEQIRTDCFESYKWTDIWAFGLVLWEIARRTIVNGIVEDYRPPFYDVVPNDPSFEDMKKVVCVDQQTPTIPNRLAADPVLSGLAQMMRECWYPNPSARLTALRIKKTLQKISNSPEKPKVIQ

AMPKα1(h) = molecular target: T5, AMPKα1(h) (Homo sapiens, UniProt Q13131); details: read-out: Inhibition rate (%)
T5 construct: purchased Eurofins (KinaseProfiler)

SAPK2a(h) = molecular target: T6, SAPK2a(h) (Homo sapiens, UniProt Q16539); details: read-out: Inhibition rate (%)
T6 construct: purchased Eurofins (KinaseProfiler)
T6 sequence (Q16539 whole entry): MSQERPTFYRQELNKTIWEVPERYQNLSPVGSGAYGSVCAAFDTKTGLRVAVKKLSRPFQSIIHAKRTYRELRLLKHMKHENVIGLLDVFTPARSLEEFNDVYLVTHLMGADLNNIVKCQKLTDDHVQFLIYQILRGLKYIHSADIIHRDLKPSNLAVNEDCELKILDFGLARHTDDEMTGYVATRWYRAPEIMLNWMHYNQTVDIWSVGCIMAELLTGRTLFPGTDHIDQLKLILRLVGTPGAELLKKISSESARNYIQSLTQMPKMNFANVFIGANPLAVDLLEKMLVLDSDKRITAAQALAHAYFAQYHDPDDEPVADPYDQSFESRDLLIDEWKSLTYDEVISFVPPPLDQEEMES

PKAcβ(h) = molecular target: T7, PKAcβ(h) (Homo sapiens, UniProt P22694); details: read-out: Inhibition rate (%)
T7 construct: purchased Eurofins (KinaseProfiler)

NEK7(h) = molecular target: T8, NEK7(h) (Homo sapiens, UniProt Q8TDX7); details: read-out: Inhibition rate (%)
T8 construct: purchased Eurofins (KinaseProfiler)
T8 sequence (Q8TDX7 whole entry): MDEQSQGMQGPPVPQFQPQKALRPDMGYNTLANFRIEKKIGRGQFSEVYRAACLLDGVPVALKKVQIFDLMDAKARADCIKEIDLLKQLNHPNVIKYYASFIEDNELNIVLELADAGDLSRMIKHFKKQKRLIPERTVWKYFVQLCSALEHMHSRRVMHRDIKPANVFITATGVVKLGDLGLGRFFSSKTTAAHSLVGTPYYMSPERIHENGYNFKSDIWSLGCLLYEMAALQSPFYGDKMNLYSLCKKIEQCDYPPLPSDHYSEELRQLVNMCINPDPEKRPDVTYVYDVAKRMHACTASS

[1] = molecular target: T9, PI3 Kinase (p110α(E545K)/p85α)(h) (Homo sapiens, UniProt P42336, E545K); details: read-out: Inhibition rate (%)
T9 construct: purchased Eurofins (KinaseProfiler)
T9 sequence (P42336 whole entry E545K): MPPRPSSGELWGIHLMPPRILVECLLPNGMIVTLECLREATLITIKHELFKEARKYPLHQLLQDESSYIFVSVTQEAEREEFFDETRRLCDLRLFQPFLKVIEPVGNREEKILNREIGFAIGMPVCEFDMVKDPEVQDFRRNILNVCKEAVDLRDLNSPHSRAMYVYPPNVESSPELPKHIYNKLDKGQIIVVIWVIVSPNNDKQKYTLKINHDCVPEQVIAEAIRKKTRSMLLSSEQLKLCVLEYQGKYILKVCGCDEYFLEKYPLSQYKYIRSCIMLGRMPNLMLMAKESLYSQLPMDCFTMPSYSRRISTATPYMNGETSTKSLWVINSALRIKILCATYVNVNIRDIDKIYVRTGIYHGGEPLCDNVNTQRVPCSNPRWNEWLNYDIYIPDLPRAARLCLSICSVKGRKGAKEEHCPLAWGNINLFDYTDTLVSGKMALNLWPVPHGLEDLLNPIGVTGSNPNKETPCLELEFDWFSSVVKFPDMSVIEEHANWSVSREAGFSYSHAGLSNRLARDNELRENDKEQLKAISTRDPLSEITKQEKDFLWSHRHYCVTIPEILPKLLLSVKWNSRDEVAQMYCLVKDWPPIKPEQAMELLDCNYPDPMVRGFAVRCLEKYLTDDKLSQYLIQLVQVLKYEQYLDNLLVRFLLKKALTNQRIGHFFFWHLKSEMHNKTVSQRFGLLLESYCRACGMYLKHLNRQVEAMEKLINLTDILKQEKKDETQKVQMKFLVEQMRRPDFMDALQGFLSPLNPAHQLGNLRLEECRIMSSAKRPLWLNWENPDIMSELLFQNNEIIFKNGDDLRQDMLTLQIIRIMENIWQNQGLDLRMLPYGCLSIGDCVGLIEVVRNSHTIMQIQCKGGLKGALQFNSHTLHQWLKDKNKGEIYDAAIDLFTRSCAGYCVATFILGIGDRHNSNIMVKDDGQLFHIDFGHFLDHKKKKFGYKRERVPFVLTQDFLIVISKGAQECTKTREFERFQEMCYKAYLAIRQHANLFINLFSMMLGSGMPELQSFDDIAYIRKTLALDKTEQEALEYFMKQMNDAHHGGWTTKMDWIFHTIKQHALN
T9 sequence (P27986 whole entry partner): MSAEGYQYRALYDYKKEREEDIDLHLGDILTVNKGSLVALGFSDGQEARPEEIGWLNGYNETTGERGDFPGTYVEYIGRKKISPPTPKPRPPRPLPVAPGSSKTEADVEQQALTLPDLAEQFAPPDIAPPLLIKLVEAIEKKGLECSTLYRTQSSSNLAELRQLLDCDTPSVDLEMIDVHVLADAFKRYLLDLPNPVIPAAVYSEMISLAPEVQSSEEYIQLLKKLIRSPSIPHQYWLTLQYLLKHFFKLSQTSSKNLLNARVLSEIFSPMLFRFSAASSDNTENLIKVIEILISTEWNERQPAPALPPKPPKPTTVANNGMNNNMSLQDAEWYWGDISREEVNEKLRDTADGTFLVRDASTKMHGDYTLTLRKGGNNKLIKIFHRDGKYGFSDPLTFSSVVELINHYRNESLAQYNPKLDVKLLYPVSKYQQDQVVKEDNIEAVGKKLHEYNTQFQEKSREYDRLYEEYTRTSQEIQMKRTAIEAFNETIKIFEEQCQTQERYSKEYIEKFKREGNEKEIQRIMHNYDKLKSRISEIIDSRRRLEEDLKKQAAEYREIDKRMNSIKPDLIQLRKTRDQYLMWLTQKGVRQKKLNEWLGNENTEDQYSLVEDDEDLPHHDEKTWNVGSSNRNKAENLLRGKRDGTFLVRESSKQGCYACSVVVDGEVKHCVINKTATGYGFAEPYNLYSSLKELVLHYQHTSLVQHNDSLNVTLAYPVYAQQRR

FGFR3(h) = FGFR3(h) (Homo sapiens, UniProt P22607)
Sequence of FGFR3(h) (P22607 23-806): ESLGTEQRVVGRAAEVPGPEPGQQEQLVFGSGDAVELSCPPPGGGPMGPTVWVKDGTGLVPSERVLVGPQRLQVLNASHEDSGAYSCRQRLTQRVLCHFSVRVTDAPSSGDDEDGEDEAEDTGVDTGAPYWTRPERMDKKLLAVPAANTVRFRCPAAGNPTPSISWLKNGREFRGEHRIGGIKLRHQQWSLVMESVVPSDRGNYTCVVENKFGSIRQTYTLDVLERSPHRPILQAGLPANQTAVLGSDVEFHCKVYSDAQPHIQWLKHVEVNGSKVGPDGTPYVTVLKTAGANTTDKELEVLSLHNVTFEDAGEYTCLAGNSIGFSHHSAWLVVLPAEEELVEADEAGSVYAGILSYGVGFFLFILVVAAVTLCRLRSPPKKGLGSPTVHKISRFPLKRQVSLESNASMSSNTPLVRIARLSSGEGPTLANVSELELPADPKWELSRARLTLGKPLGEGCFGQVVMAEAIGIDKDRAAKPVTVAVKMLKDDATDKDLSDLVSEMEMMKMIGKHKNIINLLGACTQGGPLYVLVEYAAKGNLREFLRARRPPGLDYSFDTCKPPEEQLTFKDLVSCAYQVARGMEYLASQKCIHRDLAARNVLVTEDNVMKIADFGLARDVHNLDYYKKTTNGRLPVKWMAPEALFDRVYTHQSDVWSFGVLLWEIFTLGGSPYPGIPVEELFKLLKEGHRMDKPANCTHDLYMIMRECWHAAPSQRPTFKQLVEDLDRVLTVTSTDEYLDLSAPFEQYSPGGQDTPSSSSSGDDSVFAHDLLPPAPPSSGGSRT

NEK9(h) = molecular target: T10, NEK9(h) (Homo sapiens, UniProt Q8TD19); details: read-out: Inhibition rate (%)
T10 construct: purchased Eurofins (KinaseProfiler)
T10 sequence (Q8TD19 1-979): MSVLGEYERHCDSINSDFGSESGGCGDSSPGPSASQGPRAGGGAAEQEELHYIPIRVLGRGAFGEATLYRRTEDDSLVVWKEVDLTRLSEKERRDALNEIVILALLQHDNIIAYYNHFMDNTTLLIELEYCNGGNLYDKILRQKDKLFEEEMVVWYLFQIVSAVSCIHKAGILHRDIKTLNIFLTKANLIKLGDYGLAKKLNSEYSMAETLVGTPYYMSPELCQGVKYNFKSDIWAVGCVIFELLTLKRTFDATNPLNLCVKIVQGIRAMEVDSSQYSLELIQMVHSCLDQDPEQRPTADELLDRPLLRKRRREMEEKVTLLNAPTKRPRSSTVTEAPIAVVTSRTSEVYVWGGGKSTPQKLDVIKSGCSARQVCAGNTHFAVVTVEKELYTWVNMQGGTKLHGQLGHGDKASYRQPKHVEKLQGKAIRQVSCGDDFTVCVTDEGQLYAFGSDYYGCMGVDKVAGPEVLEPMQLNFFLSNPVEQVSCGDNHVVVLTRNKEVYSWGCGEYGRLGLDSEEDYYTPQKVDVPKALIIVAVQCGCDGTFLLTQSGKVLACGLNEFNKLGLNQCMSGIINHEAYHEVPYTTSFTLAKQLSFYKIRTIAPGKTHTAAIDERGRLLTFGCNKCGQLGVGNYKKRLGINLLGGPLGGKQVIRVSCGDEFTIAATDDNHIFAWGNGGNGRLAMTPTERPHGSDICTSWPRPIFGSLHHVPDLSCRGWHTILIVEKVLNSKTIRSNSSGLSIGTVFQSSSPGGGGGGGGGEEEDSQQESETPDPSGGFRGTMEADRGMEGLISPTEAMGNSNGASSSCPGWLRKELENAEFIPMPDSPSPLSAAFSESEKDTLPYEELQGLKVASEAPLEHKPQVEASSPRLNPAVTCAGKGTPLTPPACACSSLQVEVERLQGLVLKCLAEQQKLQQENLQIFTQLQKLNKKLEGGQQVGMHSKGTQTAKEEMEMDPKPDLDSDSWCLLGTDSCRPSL

PKCθ(h) = molecular target: T11, PKCθ(h) (Homo sapiens, UniProt Q04759); details: read-out: Inhibition rate (%)
T11 construct: purchased Eurofins (KinaseProfiler)
T11 sequence (Q04759 whole entry): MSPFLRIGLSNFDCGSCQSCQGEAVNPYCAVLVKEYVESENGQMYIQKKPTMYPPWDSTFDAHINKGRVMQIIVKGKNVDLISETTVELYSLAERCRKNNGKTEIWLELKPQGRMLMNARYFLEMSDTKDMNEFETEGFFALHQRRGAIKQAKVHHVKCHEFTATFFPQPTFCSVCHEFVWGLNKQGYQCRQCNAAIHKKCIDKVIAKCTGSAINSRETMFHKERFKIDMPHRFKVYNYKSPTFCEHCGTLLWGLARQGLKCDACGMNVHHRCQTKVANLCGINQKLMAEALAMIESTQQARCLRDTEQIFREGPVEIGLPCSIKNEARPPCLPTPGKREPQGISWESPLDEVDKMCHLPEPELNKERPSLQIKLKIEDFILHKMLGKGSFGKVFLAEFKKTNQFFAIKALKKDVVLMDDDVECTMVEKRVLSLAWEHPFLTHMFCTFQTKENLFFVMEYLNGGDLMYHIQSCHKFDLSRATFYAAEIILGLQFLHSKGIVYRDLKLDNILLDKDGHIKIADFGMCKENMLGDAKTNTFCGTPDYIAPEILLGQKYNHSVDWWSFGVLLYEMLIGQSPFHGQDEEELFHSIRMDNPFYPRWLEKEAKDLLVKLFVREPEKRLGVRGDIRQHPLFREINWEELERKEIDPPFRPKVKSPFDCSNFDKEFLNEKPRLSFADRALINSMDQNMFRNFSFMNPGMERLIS

## COc1cc(OC)c(Cl)c(-c2ccc3c(NC(=O)c4ccc(N5CCNC(C)(C)C5)cc4)n[nH]c3n2)c1Cl [3D185]
SAPK3(h); 10 nM
  inhibition at 0.01 µM: -4%
SAPK3(h); 100 nM
  inhibition at 0.1 µM: -12%
SAPK3(h); 1000 nM
  inhibition at 1 µM: -7%
PDGFRα(h); 10 nM
  inhibition at 0.01 µM: 9%
PDGFRα(h); 100 nM
  inhibition at 0.1 µM: 6%
PDGFRα(h); 1000 nM
  inhibition at 1 µM: 10%
NEK6(h); 10 nM
  inhibition at 0.01 µM: -7%
NEK6(h); 100 nM
  inhibition at 0.1 µM: 4%
NEK6(h); 1000 nM
  inhibition at 1 µM: 2%
ALK1(h); 10 nM
  inhibition at 0.01 µM: 3%
ALK1(h); 100 nM
  inhibition at 0.1 µM: -7%
ALK1(h); 1000 nM
  inhibition at 1 µM: -1%
AMPKα1(h); 10 nM
  inhibition at 0.01 µM: -8%
AMPKα1(h); 100 nM
  inhibition at 0.1 µM: -6%
AMPKα1(h); 1000 nM
  inhibition at 1 µM: -13%
SAPK2a(h); 10 nM
  inhibition at 0.01 µM: -7%
SAPK2a(h); 100 nM
  inhibition at 0.1 µM: -2%
SAPK2a(h); 1000 nM
  inhibition at 1 µM: -4%
PKAcβ(h); 10 nM
  inhibition at 0.01 µM: -6%
PKAcβ(h); 100 nM
  inhibition at 0.1 µM: -11%
PKAcβ(h); 1000 nM
  inhibition at 1 µM: -11%
NEK7(h); 10 nM
  inhibition at 0.01 µM: 2%
NEK7(h); 100 nM
  inhibition at 0.1 µM: 1%
NEK7(h); 1000 nM
  inhibition at 1 µM: -1%
[1]; 10 nM
  inhibition at 0.01 µM: -2%
[1]; 100 nM
  inhibition at 0.1 µM: -2%
[1]; 1000 nM
  inhibition at 1 µM: 2%
FGFR3(h); estimated from 372-kinase panel
  IC50: < 10 nM
FGFR3(h); read-out: Inhibition rate (%)
  inhibition at 0.01 µM: 94%
  inhibition at 0.1 µM: 99%
  inhibition at 1 µM: 100%
NEK9(h); 10 nM
  inhibition at 0.01 µM: -12%
NEK9(h); 100 nM
  inhibition at 0.1 µM: -6%
NEK9(h); 1000 nM
  inhibition at 1 µM: 14%
PKCθ(h); 10 nM
  inhibition at 0.01 µM: -3%
PKCθ(h); 100 nM
  inhibition at 0.1 µM: -4%
PKCθ(h); 1000 nM
  inhibition at 1 µM: 1%
